Where two headings read alike, the source gives them in different places.
Columns and labels:
hCA IX = biological target: T1, hCA IX (Homo sapiens, UniProt Q16790); assay: stopped-flow CO2 hydration; format: biochemical
T1 construct: gene CA9; recombinant, transmembrane isoform
Method in brief: (§1)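 Inhibition of recombinant human isozymes was measured by stopped-flow CO2 hydration, and Ki was obtained by non-linear least-squares fitting with the Cheng-Prusoff equation. Enzyme and inhibitor were first preincubated for 10 min at room temperature, then the reaction was followed for 5–10 s at 557 nm and 25 °C in 10 mM Hepes pH 7.4 containing 0.2 mM Phenol Red and 0.1 M Na2SO4 or NaClO4, with CO2-saturated water as substrate. Each value is the mean of at least three determinations, from at least seven inhibitor concentrations down to 0.01 nM tested in triplicate.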

hCA I = biological target: T2, hCA I (Homo sapiens, UniProt P00915); assay: stopped-flow CO2 hydration; format: biochemical
T2 construct: gene CA1; recombinant, cytosolic isoform
Method in brief: as §1

hCA II = biological target: T3, hCA II (Homo sapiens, UniProt P00918); assay: stopped-flow CO2 hydration; format: biochemical; settings: read-out: hCAII
T3 construct: gene CA2; recombinant, cytosolic isoform
Method in brief: as §1

hCA IV [1] = biological target: T4, hCA IV (Homo sapiens, UniProt P22748); assay: biochemical; set-up: Stopped-flow CO2 hydration assay, phenol red at 557 nm, 10 min preincubation, recombinant hCA; Ki via Cheng-Prusoff
T4 construct: gene CA4
Experimental: An SX.18 MV-R Applied Photophysics (Oxford, UK) stopped-flow instrument has been used for assaying the CA catalyzed CO2 hydration activity. Phenol Red (at a concentration of 0.2 mM) has been used as indicator, working at the absorbance maximum of 557 nm, with 10 mM Hepes (pH 7.4) as buffer, 0.1 M Na2SO4 or NaClO4 (for maintaining constant the ionic strength; these anions are not inhibitory in the used concentration), following the CA-catalyzed CO2 hydration reaction for a period of 5–10 s. Saturated CO2 solutions in water at 25 °C were used as substrate. Stock solutions of inhibitors were prepared at a concentration of 10 μM (in DMSO-water 1:1, v/v) and dilutions up to 0.01 nM done with the assay buffer mentioned above. At least seven different inhibitor concentrations have been used for measuring the inhibition constant. Inhibitor and enzyme solutions were preincubated together for 10 min at room temperature prior to assay, in order to allow for the formation of the E-I complex. Triplicate experiments were done for each inhibitor concentration, and the values reported throughout the paper are the mean of such results. The inhibition constants were obtained by non-linear least-squares methods using the Cheng-Prusoff equation, as reported earlier, and represent the mean from at least three different determinations. All CA isozymes used here were recombinant proteins obtained as reported earlier by our group[10]^c,[25]^,[26]. The newly synthesised compounds 3-sulfamoylbenzamide linked 1,2,3-triazoles (Figure 4) (6a–z) as well as the intermediates (3a–d) and (4a–d) (listed in Table 1) were screened for their CA inhibitory activities against four physiologically significant isoforms, the cytosolic hCA I (associated with edema) and II (associated with glaucoma) as well as the membrane bound hCA IV (associated with glaucoma and retinitis pigmentosa) and transmembrane hCA IX (associated with tumors) by means of the stopped flow carbon dioxide assays[29] in comparison to AAZ as standard CAI (Table 2).

hCA IV [2] = biological target: T4, hCA IV; assay: stopped-flow CO2 hydration; format: biochemical
Method in brief: as §1

[3] = CO2 substrate, pH […] Hepes, […] °C, […] min preincubation

T4 sequence (P22748 19-284): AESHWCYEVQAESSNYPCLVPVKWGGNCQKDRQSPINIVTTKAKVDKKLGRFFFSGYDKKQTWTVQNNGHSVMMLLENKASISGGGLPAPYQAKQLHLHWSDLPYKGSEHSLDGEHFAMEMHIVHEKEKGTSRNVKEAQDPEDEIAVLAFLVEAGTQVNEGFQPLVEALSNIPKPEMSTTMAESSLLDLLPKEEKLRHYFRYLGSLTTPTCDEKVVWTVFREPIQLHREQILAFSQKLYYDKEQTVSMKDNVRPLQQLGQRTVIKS
T2 sequence (P00915 2-261): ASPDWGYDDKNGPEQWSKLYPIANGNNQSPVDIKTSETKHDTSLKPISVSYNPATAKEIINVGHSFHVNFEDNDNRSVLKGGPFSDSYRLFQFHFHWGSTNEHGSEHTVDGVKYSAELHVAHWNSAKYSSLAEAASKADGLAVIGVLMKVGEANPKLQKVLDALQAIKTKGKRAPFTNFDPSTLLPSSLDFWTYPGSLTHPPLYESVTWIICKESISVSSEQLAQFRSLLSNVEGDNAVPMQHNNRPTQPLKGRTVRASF

Structure (SMILES) | Ki (hCA IX) | Ki (hCA I) | Ki (hCA II) | Ki (hCA IV [1]) | Ki (hCA IV [2]) | Ki (hCA IX; [3]) | Ki (hCA I; [3]) | Ki (hCA II; [3])
NS(=O)(=O)c1cccc(C(=O)O)c1 [3a, 3-Sulfamoylbenzoic acid] | 9420 nM | 8770 nM | 8660 nM |  |  |  |  | 
NS(=O)(=O)c1cc(C(=O)O)ccc1Cl [3b, 4-Chloro-3-sulfamoylbenzoic acid] | 8980 nM | 8850 nM | 1380 nM | 2470 nM |  |  |  | 
NS(=O)(=O)c1cc(C(=O)O)ccc1F [3c, 4-Fluoro-3-sulfamoylbenzoic acid] | 9570 nM | 5750 nM | 760 nM | 958 nM |  |  |  | 
COc1ccc(C(=O)O)cc1S(N)(=O)=O [3d, 4-Methoxy-3-sulfamoylbenzoic acid] | 9670 nM | 9760 nM | 9180 nM | 8780 nM |  |  |  | 
C#CCNC(=O)c1cccc(S(N)(=O)=O)c1 [4a, N-(prop-2-yn-1-yl)-3-sulfamoylbenzamide] | 9360 nM | 9280 nM | 514 nM | 8460 nM |  |  |  | 
C#CCNC(=O)c1ccc(Cl)c(S(N)(=O)=O)c1 [4b, 4-Chloro-N-(prop-2-yn-1-yl)-3-sulfamoylbenzamide] | 447 nM | 4930 nM | 73.5 nM |  | 78.8 nM |  |  | 
C#CCNC(=O)c1ccc(F)c(S(N)(=O)=O)c1 [4c, 4-Fluoro-N-(prop-2-yn-1-yl)-3-sulfamoylbenzamide] | 816 nM | 747 nM | 165 nM |  | 429 nM |  |  | 
C#CCNC(=O)c1ccc(OC)c(S(N)(=O)=O)c1 [4d, 4-Methoxy-N-(prop-2-yn-1-yl)-3-sulfamoylbenzamide] | 9220 nM | 9500 nM | 5530 nM | 6840 nM |  |  |  | 
NS(=O)(=O)c1cccc(C(=O)NCc2cn(-c3ccccc3)nn2)c1 [6a, N-((1-phenyl-1H-1,2,3-triazol-4-yl)methyl)-3-sulfamoylbenzamide] | 7980 nM | 753 nM | 4490 nM | 9420 nM |  |  |  | 
COc1cc(-n2cc(CNC(=O)c3cccc(S(N)(=O)=O)c3)nn2)cc(OC)c1OC [6b, 3-Sulfamoyl-N-((1–(3,4,5-trimethoxyphenyl)-1H-1,2,3-triazol-4-yl)methyl)benzamide] | 4900 nM | 855 nM | 8970 nM |  |  |  |  | 
NS(=O)(=O)c1cccc(C(=O)NCc2cn(-c3cccc([N+](=O)[O-])c3)nn2)c1 [6c, N-((1–(3-nitrophenyl)-1H-1,2,3-triazol-4-yl)methyl)-3-sulfamoylbenzamide] | 6920 nM | 952 nM | 9270 nM |  |  |  |  | 
NS(=O)(=O)c1cccc(C(=O)NCc2cn(-c3cccc(F)c3)nn2)c1 [6d, N-((1–(3-fluorophenyl)-1H-1,2,3-triazol-4-yl)methyl)-3-sulfamoylbenzamide] | 7420 nM | 867 nM | 2970 nM | 8840 nM |  |  |  | 
N#Cc1cccc(-n2cc(CNC(=O)c3cccc(S(N)(=O)=O)c3)nn2)c1 [6e, N-((1–(3-cyanophenyl)-1H-1,2,3-triazol-4-yl)methyl)-3-sulfamoylbenzamide] | 3190 nM | 431 nM | 2360 nM | 9300 nM |  |  |  | 
COc1ccc(-n2cc(CNC(=O)c3cccc(S(N)(=O)=O)c3)nn2)cc1 [6f, N-((1–(4-methoxyphenyl)-1H-1,2,3-triazol-4-yl)methyl)-3-sulfamoylbenzamide] |  |  |  |  |  | 6750 nM | 888 nM | 9010 nM
Cc1cccc(-n2cc(CNC(=O)c3cccc(S(N)(=O)=O)c3)nn2)c1C [6g, N-((1–(2,3-dimethylphenyl)-1H-1,2,3-triazol-4-yl)methyl)-3-sulfamoylbenzamide] | 6130 nM | 448 nM | 366 nM | 8580 nM |  |  |  | 
Cc1ccc(-n2cc(CNC(=O)c3cccc(S(N)(=O)=O)c3)nn2)c(C)c1 [6h, N-((1–(2,4-dimethylphenyl)-1H-1,2,3-triazol-4-yl)methyl)-3-sulfamoylbenzamide] | 226 nM | 693 nM | 516 nM | 1760 nM |  |  |  | 
NS(=O)(=O)c1cc(C(=O)NCc2cn(-c3ccccc3)nn2)ccc1Cl [6i, 4-Chloro-N-((1-phenyl-1H-1,2,3-triazol-4-yl)methyl)-3-sulfamoylbenzamide] | 84.4 nM | 312 nM | 71.2 nM |  | 170 nM |  |  | 
COc1cc(-n2cc(CNC(=O)c3ccc(Cl)c(S(N)(=O)=O)c3)nn2)cc(OC)c1OC [6j, 4-Chloro-3-sulfamoyl-N-((1–(3,4,5-trimethoxyphenyl)-1H-1,2,3-triazol-4-yl)methyl)-benzamide] | 212 nM | 479 nM | 51.4 nM |  | 2280 nM |  |  | 
COc1ccc(-n2cc(CNC(=O)c3ccc(Cl)c(S(N)(=O)=O)c3)nn2)cc1 [6k, 4-Chloro-N-((1–(4-methoxyphenyl)-1H-1,2,3-triazol-4-yl)methyl)-3-sulfamoylbenzamide] | 41.6 nM | 86.7 nM | 56.5 nM |  | 80 nM |  |  | 
NS(=O)(=O)c1cc(C(=O)NCc2cn(-c3ccc(C(F)(F)F)cc3)nn2)ccc1Cl [6m, 4-Chloro-3-sulfamoyl-N-((1–(4-(trifluoromethyl)phenyl)-1H-1,2,3-triazol-4-yl)methyl)benzamide] | 34.6 nM | 811 nM | 7.8 nM |  | 89.9 nM |  |  | 
NS(=O)(=O)c1cc(C(=O)NCc2cn(-c3ccccc3)nn2)ccc1F [6n, 4-Fluoro-N-((1-phenyl-1H-1,2,3-triazol-4-yl)methyl)-3-sulfamoylbenzamide] | 84.5 nM | 890 nM | 49.7 nM |  | 240 nM |  |  | 
COc1ccc(-n2cc(CNC(=O)c3ccc(F)c(S(N)(=O)=O)c3)nn2)cc1 [6o, 4-Fluoro-N-((1–(4-methoxyphenyl)-1H-1,2,3-triazol-4-yl)methyl)-3-sulfamoylbenzamide] | 63.1 nM | 69.2 nM | 73.5 nM |  | 175 nM |  |  | 
NS(=O)(=O)c1cc(C(=O)NCc2cn(-c3ccc(C(F)(F)F)cc3)nn2)ccc1F [6p, 4-Fluoro-3-sulfamoyl-N-((1–(4-(trifluoromethyl)phenyl)-1H-1,2,3-triazol-4-yl)methyl)benzamide] | 235 nM | 369 nM | 91.1 nM |  | 91.8 nM |  |  | 
COc1ccc(C(=O)NCc2cn(-c3ccccc3)nn2)cc1S(N)(=O)=O [6u, 4-Methoxy-N-((1-phenyl-1H-1,2,3-triazol-4-yl)methyl)-3-sulfamoylbenzamide] | 703 nM | 681 nM | 2900 nM | 9350 nM |  |  |  | 
COc1ccc(C(=O)NCc2cn(-c3ccc(F)cc3)nn2)cc1S(N)(=O)=O [6v, N-((1–(4-fluorophenyl)-1H-1,2,3-triazol-4-yl)methyl)-4-methoxy-3-sulfamoylbenzamide] | 6820 nM | 572 nM | 9650 nM | 5350 nM |  |  |  | 
COc1ccc(C(=O)NCc2cn(-c3ccc(C)cc3)nn2)cc1S(N)(=O)=O [6w, 4-Methoxy-3-sulfamoyl-N-((1-(p-tolyl)-1H-1,2,3-triazol-4-yl)methyl)benzamide] | 526 nM | 967 nM | 4160 nM | 7620 nM |  |  |  | 
COc1ccc(C(=O)NCc2cn(-c3ccc(C)cc3C)nn2)cc1S(N)(=O)=O [6x, N-((1–(2,4-dimethylphenyl)-1H-1,2,3-triazol-4-yl)methyl)-4-methoxy-3-sulfamoylbenzamide] | 93.8 nM | 7560 nM | 6390 nM | 9340 nM |  |  |  | 
COc1ccc(C(=O)NCc2cn(-c3ccc(Br)cc3)nn2)cc1S(N)(=O)=O [6y, N-((1–(4-bromophenyl)-1H-1,2,3-triazol-4-yl)methyl)-4-methoxy-3-sulfamoylbenzamide] | 1870 nM | 555 nM | 2330 nM | 9080 nM |  |  |  | 
COc1ccccc1-n1cc(CNC(=O)c2ccc(OC)c(S(N)(=O)=O)c2)nn1 [6z, 4-Methoxy-N-((1–(2-methoxyphenyl)-1H-1,2,3-triazol-4-yl)methyl)-3-sulfamoylbenzamide] | 768 nM | 952 nM | 5370 nM | 8930 nM |  |  |  | 

— paper PMC6598542, “Synthesis of a new series of 3-functionalised-1-phenyl-1,2,3-triazole sulfamoylbenzamides as carbonic anhydrase I, II, IV and IX inhibitors” (Journal of Enzyme Inhibition and Medicinal Chemistry, 2019)
